For 11 compounds, EC50 results are on record in patent US10906890B2, “Triazole phenyl compounds as agonists of the APJ receptor” (AMGEN INC., priority 2016, dated 2021).

Chain of human APJ receptor (P35414 whole entry): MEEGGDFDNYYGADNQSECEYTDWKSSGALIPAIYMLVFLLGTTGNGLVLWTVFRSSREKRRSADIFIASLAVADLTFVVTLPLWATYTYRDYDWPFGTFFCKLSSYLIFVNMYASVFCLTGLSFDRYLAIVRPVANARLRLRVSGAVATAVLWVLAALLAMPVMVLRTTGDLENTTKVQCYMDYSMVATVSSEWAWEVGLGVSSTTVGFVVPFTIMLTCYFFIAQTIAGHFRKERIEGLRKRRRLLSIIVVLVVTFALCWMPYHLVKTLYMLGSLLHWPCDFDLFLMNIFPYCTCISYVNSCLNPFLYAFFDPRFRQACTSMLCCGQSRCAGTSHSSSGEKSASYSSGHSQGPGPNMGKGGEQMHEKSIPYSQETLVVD

The test concerns the target human APJ receptor (Homo sapiens (Human), UniProt P35414). Kind of test: [35S]GTPγS binding assay on membranes from CHO cells stably expressing human APJ receptor. Type of test: biochemical. The following applies: means of several independent experiments, read-out: Activity hAPJ SPA EC50 IP. The essentials: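 Membranes from CHO cells stably expressing FLAG-tagged human APJ incubated with [35S]GTPγS in buffer with optimized GDP, MgCl2 and NaCl levels, 90 min at RT. Signal read by imaging; EC50 by non-linear regression from means of several independent experiments.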
On the technique in general: Binding of GTPγS marks nucleotide exchange on a G protein.
Turning to `COc1ncnc(OC)c1-n1c(NS(=O)(=O)[C@@H](C)[C@H](C)c2ncc(C)cn2)nnc1-c1cccc(C#N)c1` [Example 50.0, (2S,3R)-N-(5-(3-cyanophenyl)-4-(4,6-dimethoxy-5-pyrimidinyl)-4H-1,2,4-triazol-3-yl)-3-(5-methyl-2-pyrimidinyl)-2-butanesulfonamide], the EC50 – broadly, the concentration giving half of the maximal effect – worked out at 110 nM.

Turning to `CO[C@H](c1ncc(Cl)cn1)[C@H](C)S(=O)(=O)Nc1nnc(-c2cccc3nn(C)cc23)n1C1CC1` [Example 115.0], the EC50 stood at 11 nM.

On to `COc1ccnc(OC)c1-n1c(NS(=O)(=O)[C@@H](C)[C@H](OC)c2ncc(C)cn2)nnc1-c1ccccc1` (single isomer, unassigned) [Example 23.0, (1R,2S,P)-N-(4-(2,4-dimethoxy-3-pyridinyl)-5-phenyl-4H-1,2,4-triazol-3-yl)-1-methoxy-1-(5-methyl-2-pyrimidinyl)-2-propanesulfonamide or (1R,2S,M)-N-(4-(2,4-dimethoxy-3-pyridinyl)-5-phenyl-4H-1,2,4-triazol-3-yl)-1-methoxy-1-(5-methyl-2-pyrimidinyl)-2-propanesulfonamide], for which the EC50 came to 5.9 nM.

Turning to `COc1ncnc(OC)c1-n1c(NS(=O)(=O)[C@H]2CCCN(c3ncc(C)cn3)C2)nnc1-c1ccccc1` (single isomer, unassigned) [Example 30.0, (S)—N-(4-(4,6-Dimethoxypyrimidin-5-yl)-5-phenyl-4H-1,2,4-triazol-3-yl)-1-(5-methylpyrimidin-2-yl)piperidine-3-sulfonamide or (R)—N-(4-(4,6-dimethoxypyrimidin-5-yl)-5-phenyl-4H-1,2,4-triazol-3-yl)-1-(5-methylpyrimidin-2-yl)piperidine-3-sulfonamide], the EC50 turned out to be 100 nM.

As to `COc1ncnc(OC)c1-n1c(NS(=O)(=O)[C@@H](C)[C@H](OC)c2ncc(C)cn2)nnc1-c1cccc(C#N)c1` [Example 2.0, (1R,2S)-N-(5-(3-cyanophenyl)-4-(4,6-dimethoxypyrimidin-5-yl)-4H-1,2,4-triazol-3-yl)-1-methoxy-1-(5-methylpyrimidin-2-yl)propane-2-sulfonamide], the EC50 is 110 nM.

For `COCCn1c(NS(=O)(=O)[C@@H](C)[C@H](OC)c2ncc(Cl)cn2)nnc1-c1ccccc1` [Example 129.0], the EC50 was found to be 14 nM.

As for `COc1cccc(OC)c1-n1c(NS(=O)(=O)[C@@H](C)[C@H](OC)c2ncc(C)cn2)nnc1-c1ccc2nc(N)sc2c1` [Example 74.0, (1R,2S)-N-(5-(2-amino-1,3-benzothiazol-6-yl)-4-(2,6-dimethoxyphenyl)-4H-1,2,4-triazol-3-yl)-1-methoxy-1-(5-methyl-2-pyrimidinyl)-2-propanesulfonamide], the EC50 is 140 nM.

Turning to `COCC1(n2c(NS(=O)(=O)[C@@H](C)[C@H](OC)c3ncc(Cl)cn3)nnc2-c2cccc3nn(C)cc23)CCC1` [Example 117.0], the EC50 is 340 nM.

For `COc1ncnc(OC)c1-n1c(NS(=O)(=O)[C@@H](C)[C@H](OC)c2ncc(C)cn2)nnc1-c1ccccc1` [Example 4.0, (1R,2S)-N-(4-(4,6-dimethoxypyrimidin-5-yl)-5-phenyl-4H-1,2,4-triazol-3-yl)-1-methoxy-1-(5-methylpyrimidin-2-yl)propane-2-sulfonamide], the EC50 was 2.9 nM.

As to `COc1cccc(OC)c1-n1c(NS(=O)(=O)[C@@H](C)[C@H](C)c2ncc(C)cn2)nnc1-c1ccccc1` [Example 15.0, (2S,3R)-N-(4-(2,6-dimethoxyphenyl)-5-phenyl-4H-1,2,4-triazol-3-yl)-3-(5-methyl-2-pyrimidinyl)-2-butanesulfonamide], the EC50 stood at 0.89 nM.

`COc1ncnc(OC)c1-n1c(NS(=O)(=O)[C@@H](C)[C@H](OC)c2ncc(C)cn2)nnc1-c1cccc2cn(C)nc12` [Example 93.0]: the EC50 was found to be 41 nM.
